Reference: article PMC9787607, “A Novel Protocol for the Synthesis of 1,2,4-Oxadiazoles Active against Trypanosomatids and Drug-Resistant Leukemia Cell Lines” (Tropical Medicine and Infectious Disease, 2022)

How the values were obtained:
[1] = target: T1, human serum albumin (HSA) (Homo sapiens, UniProt P02768); test: Steady-state fluorescence quenching of HSA; assay type: binding; settings: for KSV (Stern-Volmer quenching constant) / kq (bimolecular quenching rate constant) / n (number of binding sites): PBS
T1 construct: purchased Sigma-Aldrich A3782-1G
Procedure: Steady-state fluorescence and circular dichroism (CD) spectra were measured on a Jasco J-815 optical spectrometer employing a Jasco PFD-425S15F thermostatic cuvette holder. All spectra were recorded with appropriate background corrections. For the steady-state fluorescence data, inner filter corrections were performed, following the literature.
The steady-state fluorescence measurements were carried out in the 290–450 nm range (λexc = 280 nm) at 289, 296, 303, 310, and 317 K. The addition of compound 23 to a 3.0 mL HSA solution (1.0 × 10^−5 M, in PBS) was done manually, achieving final concentrations of 0.17, 0.33, 0.50, 0.66, 0.83, 0.99, 1.15, and 1.32 × 10^−5 M. To obtain quantitative information on the binding capacity of 23 to HSA, Stern-Volmer, double-logarithmic, van’t Hoff, and Gibbs’ free energy analysis were applied following our previous works.

[2] = target: T1, human serum albumin (HSA); test: Competitive binding with HSA site probes (warfarin, ibuprofen, digitoxin)
Procedure: Competitive binding studies were carried out using site probes for sites I, II, and III, i.e., warfarin, ibuprofen, and digitoxin, respectively. The HSA and site probes were used at a fixed concentration (1.0 × 10^−5 M), and the fluorescence quenching titration with compound 23 was performed as described previously for the steady-state fluorescence quenching procedure at 310 K.

[3] = target: T1, human serum albumin (HSA); test: Time-resolved fluorescence of HSA; assay type: binding; settings: HSA 1.0 × 10^−5 M with 23 1.32 × 10^−5 M, pH 7.4, 296 K
Procedure: Time-resolved fluorescence measurements were performed on a model FL920 CD fluorimeter from Edinburgh Instruments equipped with an EPL laser (λexc = 280 ± 10 nm; pulse of 850 ps with energy of 1.8 µW/pulse; monitoring emission at 340 nm). The time-resolved fluorescence decays of a 3.0 mL HSA solution (1.0 × 10^−5 M, in PBS) were obtained without and with compound 23 (1.32 × 10^−5 M).

[4] = target: T1, human serum albumin (HSA); test: Circular dichroism of HSA; assay type: binding; settings: HSA 1.0 × 10^−6 M, proportion 1:10, 310 K
Procedure: The CD analysis was carried out using 3.0 mL of HSA solution (1.0 × 10^−6 M, in PBS) without and with 23 in the proportion 1:10 in the 200–250 nm range at 310 K. The average spectra were obtained from three successive runs and corrected by subtraction of the buffer signal. The secondary structure content was estimated by analysis of the CD spectra using the online server BestSel (Beta Structure Selection http://bestsel.elte.hu/index.php; accessed on 12 March 2022).

T1 sequence (P02768 25-609): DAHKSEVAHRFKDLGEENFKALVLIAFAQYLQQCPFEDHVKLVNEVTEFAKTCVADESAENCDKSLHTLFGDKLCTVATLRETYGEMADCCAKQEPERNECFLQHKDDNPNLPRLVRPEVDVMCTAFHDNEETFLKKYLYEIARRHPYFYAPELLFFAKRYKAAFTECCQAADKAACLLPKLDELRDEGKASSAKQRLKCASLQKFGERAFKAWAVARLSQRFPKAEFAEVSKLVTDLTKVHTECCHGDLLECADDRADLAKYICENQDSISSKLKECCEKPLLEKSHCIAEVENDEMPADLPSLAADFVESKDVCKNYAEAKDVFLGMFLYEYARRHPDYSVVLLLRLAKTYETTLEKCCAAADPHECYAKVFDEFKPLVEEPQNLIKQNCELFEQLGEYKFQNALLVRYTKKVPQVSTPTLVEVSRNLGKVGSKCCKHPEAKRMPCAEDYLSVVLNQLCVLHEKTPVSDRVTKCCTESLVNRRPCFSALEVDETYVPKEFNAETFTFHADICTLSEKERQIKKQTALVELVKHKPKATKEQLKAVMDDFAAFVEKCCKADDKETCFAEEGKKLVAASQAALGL

COc1cc(/C=C/c2nc(-c3cc(OC)c(OC)c(OC)c3)no2)cc(OC)c1OC [Compound 23, (E)-3-(3,4,5-trimethoxyphenyl)-5-[2-(3,4,5-trimethoxyphenyl)-vinyl]-1,2,4-oxadiazole]
ΔG° ([1]; 289 K): −28.7 kJmol^−1
KSV (Stern-Volmer quenching constant) ([1]; 289 K): 1.56 ± 0.02 × 10^5 M^−1
kq (bimolecular quenching rate constant) ([1]; 289 K): 3.22e+13 M⁻¹ s⁻¹
n (number of binding sites) ([1]; 289 K): 0.992 ± 0.01
KSV values, order of magnitude ([1]; 289–317 K): ~10^5 M^−1
kq values, order of magnitude ([1]; 289–317 K): ~10^13 M^−1s^−1
ΔG° ([1]; 296 K): −29.2 kJmol^−1
KSV (Stern-Volmer quenching constant) ([1]; 296 K): 1.44 ± 0.02 × 10^5 M^−1
kq (bimolecular quenching rate constant) ([1]; 296 K): 2.97e+13 M⁻¹ s⁻¹
n (number of binding sites) ([1]; 296 K): 1.04 ± 0.01
ΔG° ([1]; 303 K): −29.7 kJmol^−1
KSV (Stern-Volmer quenching constant) ([1]; 303 K): 1.31 ± 0.07 × 10^5 M^−1
kq (bimolecular quenching rate constant) ([1]; 303 K): 2.7e+13 M⁻¹ s⁻¹
n (number of binding sites) ([1]; 303 K): 1.09 ± 0.01
ΔG° ([1]; 310 K): −30.2 kJmol^−1
KSV (Stern-Volmer quenching constant) ([1]; 310 K): 1.22 ± 0.01 × 10^5 M^−1
kq (bimolecular quenching rate constant) ([1]; 310 K): 2.52e+13 M⁻¹ s⁻¹
n (number of binding sites) ([1]; 310 K): 1.02 ± 0.01
ΔG° ([1]; 317 K): −30.7 kJmol^−1
KSV (Stern-Volmer quenching constant) ([1]; 317 K): 1.19 ± 0.02 × 10^5 M^−1
kq (bimolecular quenching rate constant) ([1]; 317 K): 2.45e+13 M⁻¹ s⁻¹
n (number of binding sites) ([1]; 317 K): 1.02 ± 0.01
ΔH° ([1]; van't Hoff analysis, 289–317 K): −7.85 ± 0.71 kJmol^−1
ΔS° ([1]; van't Hoff analysis, 289–317 K): 72.2 ± 2.3 J/(mol·K)
decrease of the KSV value in the presence of warfarin ([2]; 310 K): 14%
main binding site in HSA ([2]; competitive binding with site probes): subdomain IIA (site I)
%Relative τ1 of HSA:23 [3]: 23.5%
%Relative τ2 of HSA:23 [3]: 76.5%
τ1 of HSA:23 [3]: 1.59 ± 0.11 ns
τ2 of HSA:23 [3]: 5.70 ± 0.12 ns
τaverage of HSA:23 [3]: 4.73 ± 0.11 ns
effect on the secondary content of HSA (CD) [4]: does not significantly perturb
